Here are results for 7 compounds from ChEMBL document CHEMBL1201862, “PubChem BioAssay data set” (2004).

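Interpolation was linear, between the two tested concentrations surrounding the appropriate level; five concentrations were tested over 48 hours in 96-well plates. Here, GI50 denotes the concentration required for 50% inhibition of growth.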 The source made the active and inactive calls. Rule as the data show it: active = GI50 up to about 1.1 µM and inactive = higher.

Among the test systems are MDA-N; SK-MEL-5; HT-29; OVCAR-8; HCT-116; U-251; SF-539; HOP-92; SF-268; OVCAR-4; Hs-578T; 786-0; OVCAR-5; NCI-H522; MDA-MB-231; SF-295; HCC 2998; CAKI-1; SNB-75; SR.
Common to all, as to assay: NCI tumour cell line growth inhibition, 48 h

With `COc1ccc(O)c(/C=N/NC(=S)N2CCCCC2)c1`, the GI50 is 7.8 µM (inactive) with MDA-N; 2.02 µM (inactive) in the assay with SK-MEL-5; 8.17 µM (inactive) in the assay on HT-29; 1.86 µM (inactive) in the assay with OVCAR-8; 2.3 µM (inactive) in the assay with HCT-116; 1.85 µM (inactive) with U-251. The GI50 in the assay on SF-539 is 3.77 µM (inactive); with HOP-92, 5.18 µM (inactive); in the assay with SF-268, 0.948 µM (active); with OVCAR-4, 4.59 µM (inactive); with Hs-578T, 31 µM (inactive); with 786-0 it was 1.15 µM (inactive). Besides, the GI50 was 5.9 µM (inactive) in the assay with OVCAR-5; 0.948 µM (active) with NCI-H522; 9.23 µM (inactive) with MDA-MB-231; 3.33 µM (inactive) in the assay on SF-295; 1.87 µM (inactive) with HCC 2998; 2.72 µM (inactive) in the assay with CAKI-1. The results for the GI50 with SNB-75 and in the assay with SR were 10.5 µM (inactive) and 0.425 µM (active), respectively.
Regarding `CCc1[nH]c(=O)nc(N)c1-c1ccc(N2CCCCC2)c([N+](=O)[O-])c1`, the GI50 with MDA-N, in the assay on SK-MEL-5, in the assay on HT-29, in the assay with OVCAR-8, with HCT-116 and with U-251 was > 100 µM (inactive) each time. Further, the GI50 with SF-539 is > 100 µM (inactive); with HOP-92, > 100 µM (inactive); in the assay with SF-268, > 100 µM (inactive); with OVCAR-4 it was > 100 µM (inactive); in the assay on Hs-578T, 53.2 µM (inactive); in the assay with 786-0 it was > 100 µM (inactive). In addition, the GI50 is > 100 µM (inactive) with OVCAR-5; > 100 µM (inactive) in the assay with NCI-H522; 98.4 µM (inactive) in the assay with MDA-MB-231; > 100 µM (inactive) in the assay on SF-295; > 100 µM (inactive) in the assay with HCC 2998; > 100 µM (inactive) in the assay with CAKI-1. Moreover, the GI50 in the assay on SNB-75 and in the assay with SR was > 100 µM (inactive) each time.
With `Nc1ccn(C2CC(O)C(COP(=O)(S)OC3CC(n4ccc(N)nc4=O)OC3CO)O2)c(=O)n1` (stereo not given), the GI50 in the assay with MDA-N was 4.93 µM (inactive); in the assay on SK-MEL-5, > 100 µM (inactive); in the assay with HT-29, > 100 µM (inactive); in the assay on OVCAR-8 it was > 100 µM (inactive); with HCT-116, > 100 µM (inactive); in the assay with U-251, > 100 µM (inactive). For the same compound, the GI50 in the assay on SF-539, with HOP-92, in the assay with SF-268, in the assay on OVCAR-4, with Hs-578T and with 786-0 was > 100 µM (inactive) throughout. Besides, the GI50 in the assay with OVCAR-5, in the assay with NCI-H522, with MDA-MB-231, in the assay with SF-295, in the assay on HCC 2998 and in the assay on CAKI-1 was > 100 µM (inactive) each time. Moreover, the GI50 with SNB-75 is 36.5 µM (inactive); with SR, > 100 µM (inactive).
Turning to `CC(=O)NC1=C(C)C(=O)c2c(nc3n2CC[C@H]3OC(C)=O)C1=O`, the GI50 in the assay on MDA-N was 0.628 µM (active); with SK-MEL-5 it was 3.09 µM (inactive); in the assay on HT-29, 2.47 µM (inactive); in the assay with OVCAR-8 it was 1.55 µM (inactive); in the assay with HCT-116, 1.3 µM (inactive); in the assay with U-251 it was 1.59 µM (inactive). Moreover, the GI50 with SF-539 is 2.38 µM (inactive); with HOP-92, 0.416 µM (active); with SF-268, 2.87 µM (inactive); in the assay on OVCAR-4 it was 0.891 µM (active); in the assay with Hs-578T it was 3.21 µM (inactive); in the assay on 786-0 it was 1.95 µM (inactive). The GI50 in the assay on OVCAR-5 is 2.96 µM (inactive); in the assay with NCI-H522, 1.54 µM (inactive); in the assay on MDA-MB-231, 1.37 µM (inactive); in the assay with SF-295, 2.1 µM (inactive); in the assay on HCC 2998, 2.52 µM (inactive); with CAKI-1, 3.98 µM (inactive). Further, the GI50 with SNB-75 is 3.13 µM (inactive); in the assay on SR, 0.361 µM (active).
On to `CCCCC1CCCCCCc2[nH]c(/C=C3\N=C(c4ccc[nH]4)C=C3OC)cc21` (stereo not given), for which the GI50 in the assay on MDA-N is < 0.0139 µM (active); with SK-MEL-5, 0.0128 µM (active); with HT-29 it was < 0.01 µM (active); in the assay with OVCAR-8, < 0.0223 µM (active); with HCT-116 it was < 0.01 µM (active); in the assay with U-251, < 0.0122 µM (active). Besides, the GI50 was 0.0308 µM (active) in the assay on SF-539; < 0.0119 µM (active) in the assay on HOP-92; 0.0676 µM (active) in the assay with SF-268; < 0.0127 µM (active) in the assay on OVCAR-4; 0.0331 µM (active) in the assay on Hs-578T; < 0.01 µM (active) in the assay with 786-0. For the same compound, the GI50 in the assay with OVCAR-5 was 0.116 µM (active); with NCI-H522 it was < 0.016 µM (active); in the assay with MDA-MB-231 it was < 0.024 µM (active); with SF-295, < 0.0191 µM (active); in the assay with HCC 2998 it was < 0.01 µM (active); in the assay with CAKI-1 it was 0.0502 µM (active). Moreover, the GI50 is < 0.0306 µM (active) in the assay on SNB-75 and < 0.01 µM (active) in the assay on SR.
For `CCN1CCC(O)(/C=C/c2ccc(C(C)C)cc2)C(C(=O)/C=C/c2ccc(C(C)C)cc2)C1` (stereo not given), the GI50 is 2.37 µM (inactive) with MDA-N; 4.42 µM (inactive) with SK-MEL-5; 2.24 µM (inactive) in the assay on HT-29; 1.96 µM (inactive) in the assay on OVCAR-8; 1.75 µM (inactive) in the assay with HCT-116; 2.61 µM (inactive) with U-251. For the same compound, the GI50 is 2.29 µM (inactive) in the assay on SF-539; 1.85 µM (inactive) in the assay with HOP-92; 1.96 µM (inactive) in the assay on SF-268; 3.04 µM (inactive) in the assay on OVCAR-4; 2.31 µM (inactive) with Hs-578T; 1.71 µM (inactive) in the assay on 786-0. Further, the GI50 in the assay on OVCAR-5 is 4.34 µM (inactive); in the assay with NCI-H522, 2.1 µM (inactive); with MDA-MB-231, 1.87 µM (inactive); with SF-295, 2.9 µM (inactive); with HCC 2998 it was 1.81 µM (inactive); with CAKI-1, 4.34 µM (inactive). Moreover, the GI50 with SNB-75 was 4.62 µM (inactive); with SR it was 1.38 µM (inactive).
Consider `Cc1cn([C@H]2[C@@H](CO)C[C@H]2O)c(=O)[nH]c1=O`, for which the GI50 in the assay with MDA-N, in the assay with SK-MEL-5, in the assay on HT-29, in the assay on OVCAR-8, in the assay with HCT-116 and in the assay on U-251 was > 100 µM (inactive) throughout. Further, the GI50 with SF-539, in the assay with HOP-92, with SF-268, in the assay with OVCAR-4, with Hs-578T and in the assay on 786-0 was > 100 µM (inactive) throughout. For the same compound, the GI50 with OVCAR-5, with NCI-H522, in the assay on MDA-MB-231, in the assay with SF-295, in the assay on HCC 2998 and with CAKI-1 was > 100 µM (inactive) in each case. The GI50 with SNB-75 and with SR was > 100 µM (inactive) in each case.
